# Laboratory results as given in patent US9161924B2, “Factor IXa inhibitors” (Merck Sharp & Dohme Corp., priority 2011, dated 2015).
# Structures can show the parent of a compound that is named as a salt.
# Target: human factor IXa (Homo sapiens (Human), UniProt P00740)
# Assay: Factor IXa enzyme assay (inhibitory activity against factor IXa)
# Format: biochemical
# Conditions: substrate SPECTROFLUOR FIXa 100 μM, factor IXa 2.0 μg/ml, 60 minutes at room temperature, fluorescence
# Method: Determination of Inhibitory Activity Against Factor IXa
# Inhibitory activity against factor IXa was tested using the substrate SPECTROFLUOR FIXa (American Diagnostica Inc.; 500 West Avenue, Stamford, Conn. 06902 USA; Pr. No. 299F) and human factor IXa (American Diagnostica Inc.; Pr. No. 449b). Test substances dissolved in buffer A (50 mM α,α,α-tris (hydroxymethyl)methylamine (Tris), 100 mM NaCl, 5 mM CaCl2, 15% (v/v) ethylene glycol, pH 8.0) were mixed with factor IXa (2.0 μg/ml final concentration). The enzyme reaction was started by addition of SPECTROFLUOR FIXa (100 μM final concentration). After incubation for 60 minutes at room temperature, the reaction was stopped by the addition of 20% (v/v) acetic acid solution, and then fluorescence value measured (Excitation Wavelength:355 nm, Emission Wavelength; 460 nm) in a microtiter plate reader (ARVO 1420 Multilabel Counter; PerkinElmer).
# IC50 was calculated from a dilution series of the test substance with the aid of the software, Symix Assay Explorer (Symyx Technologies, Inc.).
# Sequence of human factor IXa (P00740 227-461): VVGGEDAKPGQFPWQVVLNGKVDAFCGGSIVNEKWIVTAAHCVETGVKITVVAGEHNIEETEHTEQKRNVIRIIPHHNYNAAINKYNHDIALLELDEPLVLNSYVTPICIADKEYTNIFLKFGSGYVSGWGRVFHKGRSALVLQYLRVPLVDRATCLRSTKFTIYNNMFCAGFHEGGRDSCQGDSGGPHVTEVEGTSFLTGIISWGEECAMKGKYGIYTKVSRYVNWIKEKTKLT
# Sequence of human factor IXa (P00740 47-191 partner): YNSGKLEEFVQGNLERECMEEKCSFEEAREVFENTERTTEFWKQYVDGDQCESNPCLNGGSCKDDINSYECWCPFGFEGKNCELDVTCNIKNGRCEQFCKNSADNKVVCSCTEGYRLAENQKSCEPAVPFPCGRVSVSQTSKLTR
row,Compound,IC50
1,"Nc1nccc2cc(NC(=O)C(O)c3cccc(-c4ccc(OC(F)(F)F)cc4)c3)ccc12 (stereo not drawn) [Compound 22, N-(1-aminoisoquinolin-6-yl)-2-hydroxy-2-(4′-(trifluoromethoxy)biphenyl-3-yl)acetamide]",760 nM
2,"CC(C)(C)c1ccc(-c2cccc(C(O)C(=O)Nc3ccc4c(N)nccc4c3)c2)cc1 (stereo not drawn) [Compound 42, N-(1-aminoisoquinolin-6-yl)-2-(4′-tert-butylbiphenyl-3-yl)-2-hydroxyacetamide hydrochloride]",695 nM
3,"CC(C)(C)c1ccc(-c2cccc(C(O)C(=O)Nc3ccc(CN)cc3)c2)cc1 (stereo not drawn) [Compound 52, N-(4-(aminomethyl)phenyl)-2-(4′-tert-butylbiphenyl-3-yl)-2-hydroxyacetamide hydrochloride]",1450 nM

# Stronger by IC50, values ahead:
row,IC50,Compound
1,440 nM,"N=C(N)c1ccc(NC(=O)C(O)c2cccc(-c3ccc(OC(F)(F)F)cc3)c2)cc1 (stereo not drawn) [Compound 9, N-(4-carbamimidoylphenyl)-2-hydroxy-2-(4′-(trifluoromethoxy)biphenyl-3-yl)acetamide]"
2,450 nM,"N=C(N)c1ccc(NC(=O)C(O)c2cccc(-c3ccc(OC(F)(F)F)cc3)c2)cc1 (stereo not drawn) [Compound 13, N-(4-carbamimidoylphenyl)-2-hydroxy-2-(4′-(trifluoromethoxy)biphenyl-3-yl)acetamide]"
3,160 nM,"CC(C)(C)c1ccc(-c2cccc(C(O)C(=O)Nc3ccc(C(=N)N)cc3)c2)cc1 (stereo not drawn) [Compound 37, 2-(4′-tert-butylbiphenyl-3-yl)-N-(4-carbamimidoylphenyl)-2-hydroxyacetamide hydrochloride]"
